From PMC5082805 (PLoS ONE, 2016)
Like-named read-outs stand apart in the source and are kept apart here. Where a SMILES comes first, the peptide text is derived from it. Bridges are numbered along the chain shown (N, C = ends). [ ]: non-standard residue; d: D form. Orn(iPr) = CC(C)NCCC[C@H](N)C(=O)O; Aad = N[C@@H](CCCC(=O)O)C(=O)O

Experiments:
[1] = Plasma bioanalysis at the time of maximum hemodynamic effect; details: New Zealand White, rabbit, in vivo, iv; atherosclerotic (A) rabbits; incremental i.v. infusion; LC-MS/MS for selepressin and AVP, LC with colorimetric detection for NE; mean ± standard deviation, n = 5; SD; read-out: maximum plasma concentration
Experimental: Blood for bioanalysis was sampled from all of the animals both before the first infusion (vehicle control) and for each infusion rate at the time of maximum hemodynamic effect. Quantification of selepressin, AVP, or NE in plasma samples was performed using validated liquid chromatography with tandem mass spectrometric detection for selepressin and AVP and validated liquid chromatography with colorimetric detection for NE. All of the animals treated with selepressin, AVP, or NE were exposed in a dose-dependent manner, with no difference between A and NA animals. The maximum selepressin plasma concentrations (mean ± standard deviation) were 329±52 and 367±48 ng/mL for A and NA animals, respectively, for AVP they were 122±27 and 100±46.2 ng/mL for A and NA, respectively, and for NE they were 301±126 and 345±164 ng/mL for A and NA, respectively.

[2] = system: non-atherosclerotic (NA) and atherosclerotic (A) rabbits; experiment: Electrocardiogram monitoring during incremental infusion rates; format: in vivo, New Zealand White rabbits; details: A and NA animals, NE finding at the highest rate tested (1 μg.kg^−1.min^−1)
Experimental: (§1) Following overnight fasting, the rabbits were pre-anesthetized intramuscularly using a mixture of 15 mg/kg ketamine hydrochloride (Imalgène 500®, Rhône Mérieux, Lyon, France) and 0.7 mg/kg xylazine hydrochloride (Rompun® 2%, KVP, Kiel, Germany). The animals were tracheotomized and maintained under isoflurane anesthesia (2% v/v isoflurane in oxygen [isoflurane: AErrane®, Baxter, Maurepas, France]). The electrocardiogram was monitored continuously (Lead II derivation) during surgery. A femoral vein was cannulated using a polyvinyl chloride catheter to administer selepressin, AVP, NE, or vehicle while a carotid artery was cannulated for blood sampling. A Millar catheter-tip transducer was introduced into the femoral artery to determine arterial pressure. The animals were infused intravenously using Ringer lactate (Lavoisier, Paris, France) at 2 mL/h.
AP and electrocardiogram signals were amplified (Hugo Sachs Elektronik, March-Hugstetten, Germany) and recorded continuously using a computerized data acquisition system (Notocord, Croissy-sur-Seine, France) with acquisition rates of 500 and 1000 Hz for arterial pressure and electrocardiogram, respectively.

[3] = system: non-atherosclerotic (NA) and atherosclerotic (A) rabbits; experiment: Serum biomarkers of cardiac injury (ASAT, CK, cardiac troponin I); format: in vivo, New Zealand White rabbits; details: at the end of administration of the highest infusion rate, n = 5
[4] = healthy rats; ref unpublished results; cited from earlier work
[5] = healthy dogs; ref unpublished results; cited from earlier work
healthy dogs = details: cited from earlier work
[6] = system: non-atherosclerotic (NA) and atherosclerotic (A) rabbits; experiment: Hemodynamic dose-response to cumulative intravenous infusion rates in anesthetized rabbits; format: in vivo, New Zealand White rabbits; details: incremental i.v. infusion rates, nonlinear regression, mean ± standard error of the mean
Experimental: Thirty male New Zealand White rabbits (2.6–3.6 kg, Centre d’élevage G. Achard de la Vente, St Mars d'Egrenne, France), aged 3–4 months were individually housed in stainless steel mesh cages (500 × 600 × 400 mm) at 19–25°C and ≥35% humidity with a 12-h light/dark cycle. Each animal received Bolapin (Huttepain Bouix, Le Mans, France) at approximately 60 g/day as standard diet (non-atherosclerotic animals) or supplemented with1% cholesterol for 6 weeks to induce atherosclerosis (both n = 15). The animals were fasted for at least 12 h before clinical laboratory blood sampling, on the day of the experiment, and before scheduled necropsy. Water was supplied ad libitum. On completion of cholesterol feeding, the animals were prepared surgically to determine cardiovascular variables and infused intravenously with selepressin, arginine vasopressin (AVP), or norepinephrine (NE) at incremental rates.
as §1
A left parasternal image window was used to obtain a long-axis view, visualizing the entire ascending aorta, the innominate artery branch, and the left common carotid arteries in the same plane. Prior to dosing, all of the animals (atherosclerotic [A] and non-atherosclerotic [NA]) were examined by 2-dimensional ultrasonography using a 15-MHz linear probe. The thoracic aorta was visualized at up to 30 frames/s using a 120-μm axial resolution. An adequate penetration depth was set to several centimeters beyond the far wall of the ascending aorta. Intima-media thickness (IMT) immediately proximal to the innominate artery branch site was determined in a consistent manner in each animal using the arterial branching points as anatomic landmarks.
Doppler ultrasonographic measurements were performed using Acuson Séquoia 526 color Doppler equipment (Siemens, Saint-Denis, France). Aortic flow measurements were performed from a trans-hepatic view for perfect alignment (cos(theta) of the Doppler equation ≈1). Time velocity integrals and aortic diameter were determined for each time point by aortic echography.
Aortic blood flow (ABF, mL/min) was calculated according to the following formula: ABF (mL/min) = SV (mL/beat)×HR (beats/min) where:
• HR: heart rate • SV (stroke volume, mL) = ITVAo (cm) × SAo (cm^2) • ITVAo: Integral time velocity of the aorta evaluated from the mean of three to five consecutive velocity waveforms (i.e., three to five heartbeats) • SAo (Section of the aorta) = (π × DAo^2)/4 • DAo: Aortic diameter (cm) determined by aortic echography close to the maximal velocity measurement site.
Before treatment, the animals (n = 5 for each drug and for A vs. NA) were infused with the corresponding vehicle (10 mM acetate buffer at 9% v/v in 0.9% NaCl for selepressin, 10 mM acetate buffer at 0.3% v/v in 0.9% NaCl for AVP, and in 0.9% NaCl for NE) at 1 mL.kg^−1.h^−1 for 15 min. Selepressin acetate, AVP, and NE were administered via the femoral vein. […]

[7] = non-atherosclerotic (NA) rabbits
[8] = atherosclerotic (A) rabbits, SEM
[9] = non-atherosclerotic (NA) rabbits, SEM

SMILES	Cmax [1] [ng/mL]	electrocardiogram abnormalities (including ST segment elevation) [2]	serum aspartate aminotransferase activity vs baseline ([3]; atherosclerotic (A) rabbits)	serum aspartate aminotransferase activity vs baseline [3, 7]	half-life [4]	half-life [5] [min]	coronary ischemic liability (healthy dogs)	Log ED50, aortic blood flow (ABF) [6, 8]	Log ED50, diastolic arterial pressure (DAP) [6, 8]	Log ED50, heart rate (HR) [6, 8]	Log ED50, mean arterial pressure (MAP) [6, 8]	Log ED50, stroke volume (SV) [6, 8]	Log ED50, systolic arterial pressure (SAP) [6, 8]	Log ED50, mean arterial pressure (MAP) [6, 7]	Log ED50, aortic blood flow (ABF) [6, 9]	Log ED50, diastolic arterial pressure (DAP) [6, 9]	Log ED50, heart rate (HR) [6, 9]	Log ED50, stroke volume (SV) [6, 9]	Log ED50, systolic arterial pressure (SAP) [6, 9]	Log ED50, mean arterial pressure (MAP) [6, 9]
CC[C@H](C)[C@@H]1NC(=O)[C@H](Cc2ccccc2)NC(=O)[C@@H](N)CSSC[C@@H](C(=O)N2CCC[C@H]2C(=O)N[C@@H](CCCNC(C)C)C(=O)NCC(N)=O)NC(=O)[C@H](CC(N)=O)NC(=O)[C@H](CCCC(N)=O)NC1=O [Selepressin, selepressin] (H-CFI[Aad](NH2)NCP[Orn(iPr)]G-NH2; disulfide 1-6)	329 ± 52	No electrocardiogram abnormalities	not significantly different from baseline	not significantly different from baseline	approximately 20 min	~30	no relevant coronary ischemic liability	–	–	–	–	–	–	–	–	–	–	–	–	–
NC(=O)CC[C@@H]1NC(=O)[C@H](Cc2ccccc2)NC(=O)[C@H](Cc2ccc(O)cc2)NC(=O)[C@@H](N)CSSC[C@@H](C(=O)N2CCC[C@H]2C(=O)N[C@@H](CCCN=C(N)N)C(=O)NCC(N)=O)NC(=O)[C@H](CC(N)=O)NC1=O [AVP, arginine vasopressin]	122 ± 27	No electrocardiogram abnormalities	not significantly different from baseline	not significantly different from baseline	–	–	–	−8.4±0.2 log(ng.kg^-1.min^-1)	−8.7±1.1 log(ng.kg^-1.min^-1)	−8.5±0.5 log(ng.kg^-1.min^-1)	−8.6±1.4 log(ng.kg^-1.min^-1)	−7.9±5.1 log(ng.kg^-1.min^-1)	−8.6±3.2 log(ng.kg^-1.min^-1)	No fit	−8.1±0.5 log(ng.kg^-1.min^-1)	−10.0±7.5 log(ng.kg^-1.min^-1)	−8.6±0.2 log(ng.kg^-1.min^-1)	−7.5±5.9 log(ng.kg^-1.min^-1)	−6.6±1.9 log(ng.kg^-1.min^-1)	–
NC[C@H](O)c1ccc(O)c(O)c1 [NE, norepinephrine]	–	Some premature ventricular beats	–	–	–	–	–	−6.2±0.7 log(ng.kg^-1.min^-1)	−5.8±0.4 log(ng.kg^-1.min^-1)	−7.0 ±1.2 log(ng.kg^-1.min^-1)	−5.7±0.3 log(ng.kg^-1.min^-1)	−5.4±0.4 log(ng.kg^-1.min^-1)	–	–	−6.5±0.4 log(ng.kg^-1.min^-1)	−6.0±0.3 log(ng.kg^-1.min^-1)	−6.9±0.9 log(ng.kg^-1.min^-1)	−6.5±0.4 log(ng.kg^-1.min^-1)	−6.1±0.2 log(ng.kg^-1.min^-1)	−6.1±0.3 log(ng.kg^-1.min^-1)
